{"source": "patent US9375436B2", "about": "“Androgen treatment in females” (priority 2004, dated 2016)", "key": {"[1]": {"system": "women with diminished ovarian reserve (DOR)", "assay": "IVF cycle and PGD outcomes in DHEA-treated women with DOR (Example 4)", "type": "in vivo, human", "text": "All the IVF cycles performed at the Center for Human Reproduction (CHR) in New York, N.Y., between 2004 and 2006 for cycles performed in women with a diagnosis of DOR were retroactively reviewed. The study population, involving 27 IVF cycles, was selected amongst those cycles which, in addition, had undergone preimplantation genetic diagnosis (PGD).\nThe diagnosis of DOR was made based on previously reported abnormally high, age stratified baseline FSH levels. In practical terms, this meant that a diagnosis of DOR was reached if baseline FSH levels exceeded the 95% confidence interval of age appropriate levels, independent of prior IVF retrievals and/or oocyte numbers. At, or above age 43, all patients were considered to suffer from DOR, independent of baseline FSH level.\nIf under age 40, DHEA was given for up to four months prior to IVF. Women of older age received DHEA, if possible, for at least two months.\nFor the purpose of this analysis, a patient had to be for at least one month (30 days) on DHEA supplementation in order for the IVF cycle to be considered amongst DHEA-treated cycles. All other DOR patients were considered to have received no DHEA treatment. Following this definition, 19 DOR patients had received no DHEA supplementation, and eight had.\nAll women with DOR, independent of DHEA supplementation, were stimulated with identical protocols, as previously reported in detail elsewhere. In short, they, without exception, received a microdose agonist protocol with maximal goandotropin stimulation of 600 IU to 750 IU daily, with preponderance of FSH, and a smaller daily amount of human menopausal gonadotropin (hMG).\nPGD was performed in routine fashion, as also previously described in detail, and involved the analysis of chromosomes X, Y, 13, 16, 18, 21 and 22 by fluorescence in situ hybridization (FISH) on day three after fertilization. Embryo transfer occurred on day five after fertilization.\nPatients were represented by only one cycle outcome in each group. If patients had undergone more than one cycle, either with, or without, DHEA supplementation, only their latest cycle was included in the analysis. Three patients underwent both a pre-DHEA and a post-DHEA cycle and in those cases both cycles were included in the analysis.\nStatistical analysis was performed using SPSS for windows, standard version 10.0.7. Data are presented as mean±one standard deviation, unless otherwise noted, and statistical differences between the two study groups were tested by Chi-square and (two-sided) Fisher's Exact Test, where applicable, with significance being defined as p<0.05."}, "DOR patients": {"system": "DOR patients", "assay": "Pregnancy outcome at various AMH levels under DHEA supplementation", "type": "in vivo, human", "text": "Another study from our center further supports these conclusions (FIG. 22). FIG. 22 is a graph showing spontaneous pregnancy loss in spontaneous and IVF pregnancies at various AMH levels. The figure depicts at various AMH levels in the left column IVF pregnancies (IVF), as previously reported (26), and in the right column spontaneously conceived pregnancies (SP). Each column represents 100% of all pregnancies established, separated for live births (black section), voluntary termination of pregnancy (TOP; usually for aneuploidy) and spontaneous miscarriages (SAB).\nIn that study (FIG. 22), we investigated live birth rates after IVF at extremely low anti-Müllerian hormone (AMH) levels and were surprised how low miscarriage rates were between non-detectable levels of AMH and 0.4 ng/mL. Losses then increased between AMH 0.41-1.05 ng/mL to over 50 percent, the expected rate in DOR patients, only to fall, once again, to very low levels above AMH 1.05 ng/mL. […]\nAMH<1.05 ng/mL represents more severe DOR. […] Chances of clinical pregnancies, miscarriages, terminations of pregnancy, and viable deliveries were then determined among severe DOR patients, depending on AMH levels (below detection, <0.1 ng/mL, 0.1-0.4 ng/mL, 0.41-0.8 ng/mL, 0.81-1.05 ng/mL) and with milder DOR (>1.06 ng/mL). […]"}, "[2]": {"assay": "Side effects and complications of DHEA supplementation", "type": "in vivo, human", "method": "We maintained in all studies and treatment protocols the oral medication dosage of about 25 mg TID (three times a day for a total of about 75 mg per day), used by our index patient. […] Studies to determine best dosaging of DHEA in the treatment of DOR have so far not been performed.\nOvarian stimulation was identical for study and control groups and comprised microdose agonist flare, followed by maximal dosage gonadotropin stimulation, using about 300-450 IU of FSH and about 150 IU of HMG. Study patients received DHEA continuously until a positive pregnancy test was obtained or until the patient dropped out of treatment. DHEA and DHEAS levels were monitored monthly, and patients were interviewed at each visit about adverse reactions to DHEA supplementation."}, "[3]": {"assay": "Level of unconjugated DHEA under routine treatment protocol", "type": "in vivo, human", "details": "25 mg micronized pharmaceutical grade DHEA TID", "method": "Routine treatment protocol involves administering about 25 mg of micronized, pharmaceutical grade DHEA, TID, to a human to uniformly raise levels of unconjugated DHEA above 350 ng/dl and, therefore, raise baseline testosterone. In six pregnancies spontaneously conceived, the distribution between female and male offspring was equal, at three and three, respectively. In contrast, in the remaining 15 offspring, which were products of pregnancies achieved through IVF, the distribution was 12 males and 3 females (p=0.035). Amongst women undergoing IVF and PGD, 53 embryos were analyzed from 17 IVF cycles, all having undergone ICSI.\nThe treatment protocol for long-term supplementation with DHEA that may improve oocyte and embryo quantity, quality, pregnancy rates and time to conception in women with diminished ovarian reserve, involves 25 mg of micronized, pharmaceutical grade DHEA, TID will usually uniformly raise levels of unconjugated DHEA above about 350 ng/dl, and, therefore, raise baseline testosterone. Estradiol baseline levels may also be raised."}, "[4]": {"system": "patients with prior clomiphene citrate failures", "details": "47 patients, 75 mg daily DHEA at least 60 days prior to inseminations; cited from earlier work"}, "[5]": {"details": "3 women with DHEA and no-DHEA cycles, DHEA-treated cycle"}, "[6]": {"details": "DHEA-treated cycles n = 8, PGD by FISH"}, "[7]": {"details": "DHEA-treated cycles, at least one euploid embryo for transfer"}}, "note": "“Also recorded” adds a separate entry of the source.", "data": [{"smiles": "C[C@]12CC[C@H](O)CC1=CC[C@@H]1[C@@H]2CC[C@]2(C)C(=O)CC[C@@H]12", "note": "[DHEA, Dehydroepiandrosterone]", "values": [{"measurement": "Aneuploid Embryos", "setting": "[1]; [5]", "result": "2.0 ± 1.8"}, {"measurement": "Oocytes ± SD", "setting": "[1]; [5]", "result": "6.0 ± 4.8"}, {"measurement": "Total Embryos ± SD", "setting": "[1]; [5]", "result": "4.0 ± 2.7"}, {"measurement": "Embryos ± SD (total number)", "setting": "[1]; DHEA-treated cycles n = 8", "result": "9.1 ± 7.3"}, {"measurement": "Oocytes ± SD", "setting": "[1]; DHEA-treated cycles n = 8", "result": "10.4±7.3"}, {"measurement": "Peak Estradiol ± SD", "setting": "[1]; DHEA-treated cycles n = 8, 25 mg TID at least one month", "result": "2310.3 ± 1108.1", "unit": "pg/mL"}, {"measurement": "% Aneuploid ± SD", "setting": "[1]; [6]", "result": "55.9 ± 37.8", "unit": "%"}, {"measurement": "% Euploid ± SD", "setting": "[1]; [6]", "result": "44.1 ± 37.8", "unit": "%"}, {"measurement": "n Aneuploid ± SD", "setting": "[1]; [6]", "result": "4.4 ± 3.0"}, {"measurement": "n Euploid ± SD", "setting": "[1]; [6]", "result": "2.1 ± 1.4"}, {"measurement": "Patients with euploid embryos (%)", "setting": "[1]; [7]", "result": 100, "unit": "%"}, {"measurement": "Patients with euploid embryos (n/N)", "setting": "[1]; [7]", "result": "8/8"}, {"measurement": "chance of live birth per treatment cycle", "setting": "DOR patients; DOR patients under DHEA supplementation, up to AMH 1.05 ng/mL", "result": "approximately 5%"}, {"measurement": "pregnancy chance per IVF cycle", "setting": "DOR patients; under DHEA supplementation, absence of detectable AMH", "result": "~5", "unit": "%"}, {"measurement": "side effects", "setting": "[2]; oral DHEA about 25 mg TID", "result": "small and primarily relate to androgen effects; also recorded: mild transient acne on the face, chest or back, oily skin and mild hair loss; also recorded: appears safe and results in only minor side effects; also recorded: limited to oily skin, rarely mild acne vulgaris and mild hair loss"}, {"measurement": "complications", "setting": "[2]; over 1,000 patients supplemented with DHEA", "result": "not encountered even a single complication of serious clinical significance"}, {"measurement": "levels of unconjugated DHEA", "setting": "[3]", "result": "above 350 ng/dl"}, {"measurement": "live births", "setting": "[4]", "result": 21.3, "unit": "%"}, {"measurement": "pregnancy rate", "setting": "[4]", "result": 29.8, "unit": "%"}]}]}
